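GI50 marks 50% less growth. TGI denotes the concentration required for complete inhibition of growth.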
Columns and labels:
Assay in all cases: NCI anticancer screen, dose series, 384-well format
[1] = test system: 786-0 renal
[2] = test system: A498 renal
[3] = test system: A549 NSCLC
[4] = test system: ACHN renal
[5] = test system: BT-549 breast
[6] = test system: CAKI-1 renal
[7] = test system: COLO 205 colon
[8] = test system: DU-145 prostate
[9] = test system: EKVX NSCLC
[10] = test system: HCC-2998 colon
[11] = test system: HCT-116 colon
[12] = test system: HCT-15 colon
[13] = test system: HL-60(TB) leukemia
[14] = test system: HOP-62 NSCLC
[15] = test system: HOP-92 NSCLC
[16] = test system: HS 578T breast
[17] = test system: HT29 colon
[18] = test system: IGROV1 ovarian
[19] = test system: KM12 colon
[20] = test system: LOX IMVI melanoma
[21] = test system: M14 melanoma
[22] = test system: MALME-3M melanoma
[23] = test system: MCF7 breast
[24] = test system: MDA-MB-231 breast
[25] = test system: MDA-MB-435 melanoma
[26] = test system: MDA-MB-468 breast
[27] = test system: MOLT-4 leukemia
[28] = test system: NCI-H226 lung
[29] = test system: NCI-H23 lung
[30] = test system: NCI-H322M lung
[31] = test system: NCI-H460 NSCLC
[32] = test system: NCI-H522 lung
[33] = test system: NCI/ADR-RES ovarian
[34] = test system: OVCAR-3 ovarian
[35] = test system: OVCAR-4 ovarian
[36] = test system: OVCAR-5 ovarian
[37] = test system: OVCAR-8 ovarian
[38] = test system: PC-3 prostate
[39] = test system: RPMI-8226 leukemia
[40] = test system: RXF 393 renal
[41] = test system: SF-268 CNS
[42] = test system: SF-295 CNS
[43] = test system: SF-539 CNS
[44] = test system: SK-MEL-28 melanoma
[45] = test system: SK-MEL-5 melanoma
[46] = test system: SK-OV-3 ovarian
[47] = test system: SN12C renal
[48] = test system: SNB-19 CNS
[49] = test system: SNB-75 CNS
[50] = test system: SR leukemia
[51] = test system: SW-620 colon
[52] = test system: TK-10 renal
[53] = test system: U251 glioblastoma
[54] = test system: UACC-257 melanoma
[55] = test system: UACC-62 melanoma
[56] = test system: UO-31 renal

O=C(c1ccc(OCCN2CCCCC2)cc1)c1c(-c2ccc(O)cc2)sc2cc(O)ccc12
GI50 [1]: 1.55 µM | TGI [1]: 2.94 µM | GI50 [2]: 2.11 µM | TGI [2]: 4.43 µM | GI50 [3]: 4.42 µM | TGI [3]: 15.4 µM | GI50 [4]: 4.02 µM | TGI [4]: 12.9 µM | GI50 [5]: 1.59 µM | TGI [5]: 3.74 µM | GI50 [6]: 2.15 µM | TGI [6]: 5.11 µM | GI50 [7]: 17.1 µM | TGI [7]: 30.9 µM | GI50 [8]: 10.8 µM | TGI [8]: 22.7 µM | GI50 [9]: 6.23 µM | TGI [9]: 18.5 µM | GI50 [10]: 3.71 µM | TGI [10]: 12.3 µM | GI50 [11]: 3.39 µM | TGI [11]: 12.3 µM | GI50 [12]: 1.26 µM | TGI [12]: 3.51 µM | GI50 [13]: 1.83 µM | TGI [13]: 3.25 µM | GI50 [14]: 3.31 µM | TGI [14]: 10.8 µM | GI50 [15]: 2.04 µM | TGI [15]: 5.03 µM | GI50 [16]: 2.5 µM | TGI [16]: 6.72 µM | GI50 [17]: 5.05 µM | TGI [17]: 16.8 µM | GI50 [18]: 2.75 µM | TGI [18]: 7.87 µM | GI50 [19]: 4.09 µM | TGI [19]: 12.7 µM | GI50 [20]: 1.84 µM | TGI [20]: 3.43 µM | GI50 [21]: 2.09 µM | TGI [21]: 3.88 µM | GI50 [22]: 1.48 µM | TGI [22]: 2.83 µM | TGI [23]: 2.78 µM | GI50 [24]: 2.2 µM | TGI [24]: 4.97 µM | GI50 [25]: 4.38 µM | TGI [25]: 10.9 µM | GI50 [26]: 3.08 µM | TGI [26]: 7.65 µM | GI50 [27]: 1.8 µM | TGI [27]: 4.59 µM | GI50 [28]: 3.27 µM | TGI [28]: 11.2 µM | GI50 [29]: 3.46 µM | TGI [29]: 12.7 µM | GI50 [30]: 1.86 µM | TGI [30]: 4.78 µM | GI50 [31]: 8.87 µM | TGI [31]: 21 µM | GI50 [32]: 7.17 µM | TGI [32]: 19.7 µM | GI50 [33]: 4.4 µM | TGI [33]: 15.1 µM | GI50 [34]: 4.33 µM | TGI [34]: 16.6 µM | GI50 [35]: 8.87 µM | TGI [35]: 20.6 µM | GI50 [36]: 5.94 µM | TGI [36]: 18.2 µM | GI50 [37]: 4.04 µM | TGI [37]: 14 µM | GI50 [38]: 2.17 µM | TGI [38]: 4.97 µM | GI50 [39]: 2.78 µM | TGI [39]: 5.32 µM | GI50 [40]: 2.29 µM | TGI [40]: 5.12 µM | GI50 [41]: 5.08 µM | TGI [41]: 17.2 µM | GI50 [42]: 12.8 µM | TGI [42]: 25.5 µM | GI50 [43]: 3.27 µM | TGI [43]: 11.3 µM | GI50 [44]: 2.54 µM | TGI [44]: 7.63 µM | GI50 [45]: 1.49 µM | TGI [45]: 3.21 µM | GI50 [46]: 9.94 µM | TGI [46]: 21.6 µM | GI50 [47]: 12.6 µM | TGI [47]: 25.2 µM | GI50 [48]: 11.7 µM | TGI [48]: 24.1 µM | GI50 [49]: 2.69 µM | TGI [49]: 8.46 µM | GI50 [50]: 3.15 µM | TGI [50]: 4.65 µM | GI50 [51]: 12.5 µM | TGI [51]: 25.1 µM | GI50 [52]: 9.63 µM | TGI [52]: 21.4 µM | GI50 [53]: 4.07 µM | TGI [53]: 13.4 µM | GI50 [54]: 1.96 µM | TGI [54]: 3.61 µM | GI50 [55]: 5.22 µM | TGI [55]: 17.3 µM | GI50 [56]: 2.59 µM | TGI [56]: 7.34 µM

— PubChem BioAssay (NCI)
